Laboratory results: patent US9700540B2, “Dronedarone for use in leishmaniasis, formulations and associations for use in leishmaniasis” (SANOFI, priority 2012, dated 2017)

Legend:
[1] = system: Axenic amastigotes of L. amazonensis; experiment: Growth inhibition of axenic amastigotes of L. amazonensis (SYBRGREEN DNA quantification); format: cell-based, Leishmania amazonensis; details: 72 hours of contact
Source text: (§1) A strain of Leishmania amazonensis (MHOM/BR/73/M2269) were used. Dronedarone hydrochloride and meglumine antimoniate were supplied by Sanofi. Amphotericin B (désoxycholate) and miltefosine were bought at Sigma-Aldrich.
1/Axenic amastigotes of L. amazonensis (isolated parasites)
(§2) The first cellular model which cultivates in a medium based on M199, allows defining the intrinsic activity of a substance on the parasite itself while the second cellular model integrates the capacity of the substance to cross the membrane of the macrophage and that of the phagolysosome. The used macrophages are cells RAW 264.7, which cultivate in medium based on DMEM with 10% of foetal serum of veal. • Determination of the IC50 of each of the molecules
(§3) Solutions of dronedarone in the DMSO, meglumine antimoniate and miltefosine in the water, and amphotericin B in an isotonic glucose solution (G5) were prepared before every experiment. The evaluations in vitro were the object of three independent experiments duplicate. The assays were realized by quantifying the parasitic DNA with the SYBRGREEN as described by Audisio and al. (Eur. J. Med. Chem., 52: 44-50, 2012) as well as by qPCR for intramacrophagic amastigotes with amplification of the alpha-tubuline of the parasite. The results obtained with both methods are similar.

[2] = system: Intramacrophagic amastigotes of L. amazonensis; experiment: Growth inhibition of intramacrophagic amastigotes of L. amazonensis in RAW 264.7 (SYBRGREEN, qPCR); format: cell-based, Leishmania amazonensis
Source text: as §1
2/Intramacrophagic amastigotes of L. amazonensis (parasites hosted in macrophages, as found in dermis, during the cutaneous Leishmaniosis infection).
as §2, §3

[3] = system: macrophages (cells RAW 264.7); experiment: Cytotoxicity on macrophages, Blue Trypan; format: cell-based, human
Description: (§4) Study of the cytotoxicity on macrophages (cells RAW 264.7)
(§5) The non-toxic maximal concentration (CMA) was determined by the technique to the Blue Trypan according to has method described in Audisio and al. (Eur. J. Med. Chem., 52: 44-50, 2012).

[4] = system: axenic amastigotes of L. donovani; experiment: Growth inhibition of axenic amastigotes of L. donovani; format: cell-based; details: Leishmania donovani, 72 hours
Source text: (§6) Strains of Leishmania donovani (MHOM/ET/67/HU3) and Leishmania major (MHOM/SU/73/5-ASKH) were used for this study.
(§7) 1/Axenic amastigotes of L. donovani and L. major (isolated parasites)
(§8) The model of axenic amastigotes is cultivated in a medium based on M199 and allows defining the intrinsic activity of a substance on the parasite itself while the model of intramacrophagic amastigotes integrates the capacity of the substance to cross the membrane of the macrophage and that of the phagolysosome.
(§9) The solutions of dronedarone in the DMSO, meglumine antimoniate and miltefosine in the water, were prepared before every experiment. The evaluations in vitro were the object of three independent experiments.
(§10) The assays were realized by quantifying the parasitic DNA with the SYBRGREEN as described by Audisio and al. (Eur. J. Med. Chem., 52: 44-50, 2012).

[5] = system: L. major's axenic amastigotes; experiment: Growth inhibition of axenic amastigotes of L. major; format: cell-based, Leishmania major; details: 72 hours
Source text: as §6, §7, §8, §9, §10

[6] = system: intramacrophagic amastigotes of L. donovani; experiment: Growth inhibition of intramacrophagic amastigotes of L. donovani in RAW 264.7; format: cell-based, Leishmania donovani
Source text: as §6
(§11) 2/Intramacrophagic amastigotes of L. donovani and L. major (parasites hosted in macrophages, as found in dermis, during the cutaneous Leishmaniosis infection).
as §8
(§12) The used macrophages are cells RAW 264.7, which cultivate in a medium based on DMEM with 10% of foetal serum of veal.
as §9, §10

[7] = system: L. major's intramacrophagic amastigotes; experiment: Growth inhibition of intramacrophagic amastigotes of L. major in RAW 264.7; format: cell-based, Leishmania major
Source text: as §6, §11, §8, §12, §9, §10

[8] = Cytotoxicity on macrophages, Blue Trypan; format: cell-based, human
Description: as §4, §5

[9] = system: Leishmania amazonensis strains resistant to meglumine antimoniate; experiment: Chemosensitivity of L. amazonensis strains resistant to meglumine antimoniate, promastigote form; format: cell-based
Description: In vitro study on Leishmania amazonensis strains resistant to meglumine antimoniate (Glucantime®)
On Leishmania amazonensis strains resistant to_meglumine antimoniate (IC50=200 mM) under promastigote form, chemosensitivity to dronedarone is similar that one observed on strains that are not resistant to meglumine antimoniate (active principle of Glucantime®).

[10] = RAW 264.7 macrophages, Blue Trypan
[11] = Leishmania amazonensis, RAW264.7, RAW 264.7, 72 hours of contact
[12] = Leishmania donovani, RAW264.7, 72 hours
[13] = Leishmania major, RAW264.7, 72 hours

Molecule | IC50 [1] | IC50 ([2]; RAW 264.7, 72 hours of contact) | non-toxic maximal concentration (CMA) [3, 10] | IC50 ([1]; Leishmania amazonensis) | IC50 [2, 11] | non-toxic maximal concentration (CMA) ([3]; human) | IC50 [4] | IC50 ([5]; Leishmania major) | IC50 [6, 12] | IC50 [7, 13] | CC50 [8] | chemosensitivity compared with strains not resistant to meglumine antimoniate [9] | therapeutic index (CC50/IC50) [6] | therapeutic index (CC50/IC50) [7] | IC50 [5] | IC50 ([6]; 72 hours) | IC50 ([7]; 72 hours)
C[C@@H]1[C@H](O)[C@@H](C)/C=C/C=C/C=C/C=C/C=C/C=C/C=C/[C@H](O[C@@H]2O[C@H](C)[C@@H](O)[C@H](N)[C@@H]2O)C[C@@H]2O[C@](O)(C[C@@H](O)C[C@@H](O)[C@H](O)CC[C@@H](O)C[C@@H](O)CC(=O)O[C@H]1C)C[C@H](O)[C@H]2C(=O)O [amphotericin B] | 0.031 ± 0.002 µM | 0.047 ± 0.005 µM | 6.25 µM | – | – | – | – | – | – | – | – | – | – | – | – | – | –
CCCCCCCCCCCCCCCCOP(=O)([O-])OCC[N+](C)(C)C [miltefosine] | – | – | – | 0.9 ± 0.2 µM | 1.87 ± 0.032 µM | 50 µM | 13 ± 1.25 µM | 5.57 ± 1.5 µM | 0.88 ± 0.1 µM | 0.72 ± 0.11 µM | – | – | – | – | – | – | –
CCCCc1oc2ccc(NS(C)(=O)=O)cc2c1C(=O)c1ccc(OCCCN(CCCC)CCCC)cc1 [dronedarone, 2-n-Butyl-3-[4-(3-di-n-butylaminopropoxy)benzoyl]-5-methylsulphonamidobenzofuran] | – | – | – | 0.34 ± 0.06 µM | 0.5 ± 0.22 µM | 12.5 µM | 47.4 ± 6.27 µM | 2.55 ± 0.51 µM | 1.67 ± 0.1 µM | 1.32 ± 0.12 µM | > 12.5 µM | similar | > 7 | > 9 | – | – | –
meglumine antimoniate | 908 ± 159 µM | 134 ± 10.4 µM | > 200 µM | – | – | – | – | – | – | – | – | – | – | – | > 1000 µM | 390 ± 40.5 µM | 348 ± 79.9 µM
